“And” between values parts separate entries of the source, which are not always exact repeats. Identical values can stand only once. “Also recorded” adds a separate entry of the source. Like-named read-outs stand apart in the source and are kept apart here.
What was measured:
TNF-α [1] = experiment: Splenocyte model, flow cytometry of TNF-α expressing cells after LPS; type: cell-based, mouse; conditions: 200 nM, 2 hrs preincubation, LPS 5 μg/mL 20 hrs; LPS alone 6.48%, unstimulated 1.03%
Description: Briefly, cells were washed two times with FACS (PBS containing 1% serum FBS) staining buffer and fully re-suspended in Cyto-Fast Fix/Perm Buffer for 20 min. Then the cells were washed again for two times with Cyto-Fast Perm wash solution and subsequently stained with recommended dilutions of intracellular antibodies for 30 min at room temperature in the dark. After staining, the cells were washed twice in FACS staining buffer, before they were resuspended in FACS staining buffer and analyzed using a NovoCyte flow cytometer (Agilent, Santa Clara, CA). […] FIG. 2E illustrates the flow cytometry of splenocytes incubated with LPS and Colchicine (200 nM).

IL-1β [2] = experiment: ELISA assay to determine IL-1β in PMA-differentiated THP-1 cells stimulated by nigericin; type: cell-based, human; conditions: 17ya 40 nM-5 μM, colchicine 1-10 μM, 1 hr, nigericin 20 μM 1 hr
Description: Concentrations of IL-1β in culture supernatant. […] IL-1β level was assessed by enzyme-linked immunosorbent assay (ELISA) kit for human IL-1β (R&D systems) (****P<0.0001, Ordinary one-way ANOVA, Prism 9).

IL-1β [3] = system: IL-1β
IL-6 = type: cell-based, mouse
TNF-α [4] = type: cell-based, mouse
CXCL-1/KC = type: cell-based, mouse
IL-1α = conditions: 17ya 40 nM, Dex 10 nM; for IL-1α, replicate 1 / IL-1α, replicate 2 / IL-1α, replicate 3: mouse spleen cells, LPS 5 μg/ml
[5] = adjusted data (control average subtracted), mouse spleen cells, LPS 5 μg/ml, 17ya 40 nM, Dex 10 nM
[6] = raw data, mouse spleen cells, LPS 5 μg/ml, 17ya 40 nM, Dex 10 nM
[7] = adjusted data (control average subtracted)

SMILES: COc1cc2c(c(OC)c1OC)-c1ccc(OC)c(=O)cc1[C@@H](NC(C)=O)CC2 [colchicine]
- spleen cells expressing TNF-α (TNF-α [1]): 3.30%
- IL-1β secretion in response to nigericin stimulation (IL-1β [2]): dose-dependently (partially) suppressed the IL-1β levels; also recorded: significantly suppressed IL-1β secretion

SMILES: C[C@@H]1C[C@H]2[C@@H]3CCC4=CC(=O)C=C[C@]4(C)[C@@]3(F)[C@@H](O)C[C@]2(C)[C@@]1(O)C(=O)CO [Dex, dexamethasone]
- IL-1β, replicate 2 (IL-1β [3]): 4.382
- average cytokine suppression, IL-1β (IL-1β [3]; LPS-stimulated mouse spleen cells, 17ya 40 nM, Dex 10 nM): 110%
- IL-1β, replicate 1 (IL-1β [3]; [5]): −1.904
- IL-1β, replicate 2 (IL-1β [3]; [5]): −2.334
- IL-1β, replicate 1 (IL-1β [3]; [6]): 4.812
- IL-1β, replicate 3 (IL-1β [3]; [6]): 3.956
- IL-6, replicate 1 (IL-6): 99.55 and 17.594
- IL-6, replicate 2 (IL-6): 73.64 and −8.316
- IL-6, replicate 3 (IL-6): 72.76 and −9.196
- average cytokine suppression, IL-6 (IL-6): 100%
- TNF-α, Average (TNF-α [4]): 32.414 and 33.60
- TNF-α, replicate 1 (TNF-α [4]): 34.2933 and 35.478
- TNF-α, replicate 2 (TNF-α [4]): 31.309 and 32.494
- TNF-α, replicate 3 (TNF-α [4]): 31.640 and 32.825
- average cytokine suppression, TNF-α (TNF-α [4]): 79%
- CXCL-1/KC, Average (CXCL-1/KC): 136.043 and 253.688
- CXCL-1/KC, replicate 1 (CXCL-1/KC): 133.410 and 251.054
- CXCL-1/KC, replicate 2 (CXCL-1/KC): 132.285 and 249.929
- CXCL-1/KC, replicate 3 (CXCL-1/KC): 142.436 and 260.08
- average cytokine suppression, KC (CXCL-1/KC): 59%
- average cytokine suppression, IL-1α (IL-1α; LPS-stimulated mouse spleen cells): 106%
- IL-1α, replicate 1 (IL-1α; [7]): −10.371
- IL-1α, replicate 2 (IL-1α; [7]): −2.519
- IL-1α, replicate 3 (IL-1α; [7]): 3.688
- IL-1α, replicate 1 (IL-1α; raw data): 22.962
- IL-1α, replicate 2 (IL-1α; raw data): 30.814
- IL-1α, replicate 3 (IL-1α; raw data): 37.012

— patent publication US12728114B2, “Methods of treating inflammation” (VERU INC., priority 2021, dated 2026)
